# Measurements: ChEMBL document CHEMBL5260810, “Inhibition of bromodomain-containing protein 9 for the prevention of epigenetically-defined drug resistance” (Bioorg Med Chem Lett, 2017)
# Legend:
# Format in all cases: functional, cell-based
# EL4 = experiment: Cytotoxicity against mouse EL4 cells measured after 8 days; details: EL4, 192 h
# MOLM-13 = experiment: Cytotoxicity against human MOLM-13 cells measured after 8 days; details: MOLM-13, 192 h
# [1] = Cytotoxicity against human Karpas-620 cells measured after 8 days; details: Karpas-620, 192 h
# [2] = Cytotoxicity against human NCI-H2369 cells measured after 8 days; details: NCI-H2369, 192 h
# SUP-B15 = experiment: Cytotoxicity against human SUP-B15 cells measured after 8 days; details: SUP-B15, 192 h
# [3] = Cytotoxicity against human RERF-LC-KJ cells measured after 8 days; details: 192 h
# [4] = Cytotoxicity against human SCLC-22H cells measured after 8 days; details: 192 h
# [5] = Cytotoxicity against human NCE-G 121 cells measured after 8 days; details: NCE-G 121, 192 h
# [6] = Cytotoxicity against human NCE-G 122 cells measured after 8 days; details: NCE-G 122, 192 h
# [7] = Cytotoxicity against human NCE-G 130 cells measured after 8 days; details: NCE-G 130, 192 h
# [8] = Cytotoxicity against human NCE-G 140 cells measured after 8 days; details: NCE-G 140, 192 h
# [9] = Cytotoxicity against human NCE-G 84 cells measured after 8 days; details: NCE-G 84, 192 h
# [10] = Cytotoxicity against human NCE-G 96 cells measured after 8 days; details: NCE-G 96, 192 h
# GI-1 = experiment: Cytotoxicity against human GI-1 cells measured after 8 days; details: GI-1, 192 h
# [11] = Cytotoxicity against mouse FOX-NY cells measured after 8 days; details: 192 h
# [12] = Cytotoxicity against human KP-N-SI9s cells measured after 8 days; details: 192 h
# FaDu = experiment: Cytotoxicity against human FaDu cells measured after 8 days; details: 192 h
# [13] = Cytotoxicity against human COV318 cells measured after 8 days; details: COV318, 192 h
# [14] = Cytotoxicity against human COV413A cells measured after 8 days; details: 192 h
# [15] = Cytotoxicity against human COV413B cells measured after 8 days; details: 192 h
# [16] = Cytotoxicity against human Hs 38.T cells measured after 8 days; details: 192 h
# KURAMOCHI = experiment: Cytotoxicity against human KURAMOCHI cells measured after 8 days; details: 192 h
# TOV112D = experiment: Cytotoxicity against human TOV112D cells measured after 8 days; details: 192 h
# Capan-2 = experiment: Cytotoxicity against human Capan-2 cells measured after 8 days; details: Capan-2, 192 h
# CFPAC-1 = experiment: Cytotoxicity against human CFPAC-1 cells measured after 8 days; details: CFPAC-1, 192 h
# HEp-2 = experiment: Cytotoxicity against human HEp-2 cells measured after 8 days; details: HEp-2, 192 h
# [17] = Cytotoxicity against human MR1-3 cells measured after 8 days; details: MR1-3, 192 h
# [18] = Cytotoxicity against human KR7414 cells measured after 8 days; details: KR7414, 192 h
# CaR-1 = experiment: Cytotoxicity against human CaR-1 cells measured after 8 days; details: CaR-1, 192 h
# COLO-320-HSR = experiment: Cytotoxicity against human COLO 320HSR cells measured after 8 days; details: 192 h
# [19] = Cytotoxicity against human Panc 05.04 cells measured after 8 days; details: Panc 05.04, 192 h
# PANC-1 = experiment: Cytotoxicity against human PANC-1 cells measured after 8 days; details: PANC-1, 192 h
# NCI-H2052 = experiment: Cytotoxicity against human NCI-H2052 cells measured after 8 days; details: NCI-H2052, 192 h
# MC-38 = experiment: Cytotoxicity against mouse MC38 ovalbumin cells measured after 8 days; details: MC-38, 192 h
# SW1463 = experiment: Cytotoxicity against human SW1463 cells measured after 8 days; details: SW1463, 192 h
# [20] = Cytotoxicity against human Mel 928 cells measured after 8 days; details: Mel 928, 192 h
# A2058 = experiment: Cytotoxicity against human A2058 cells measured after 8 days; details: A2058, 192 h
# C32 = experiment: Cytotoxicity against human C32 cells measured after 8 days; details: C32, 192 h
# KYSE-410 = experiment: Cytotoxicity against human KYSE-410 cells measured after 8 days; details: KYSE-410, 192 h
# KYSE-70 cell line = experiment: Cytotoxicity against human KYSE-70 cell line measured after 8 days; details: KYSE-70, 192 h
# COLO-800 = experiment: Cytotoxicity against human COLO-800 cells measured after 8 days; details: COLO-800, 192 h
# COLO-829 = experiment: Cytotoxicity against human COLO-829 cells measured after 8 days; details: COLO-829, 192 h
# [21] = Cytotoxicity against human HSC-5 cells measured after 8 days; details: HSC-5, 192 h
# CAKI-2 = experiment: Cytotoxicity against human CAKI-2 cells measured after 8 days; details: CAKI-2, 192 h
# [22] = Cytotoxicity against human HCC1010 cells measured after 8 days; details: HCC1010, 192 h
# Renca = experiment: Cytotoxicity against mouse Renca cells measured after 8 days; details: 192 h
# HepG2 = experiment: Cytotoxicity against human HepG2 cells measured after 8 days; details: HepG2, 192 h
# SNU-182 = experiment: Cytotoxicity against human SNU-182 cells measured after 8 days; details: SNU-182, 192 h
# SNU-398 = experiment: Cytotoxicity against human SNU-398 cells measured after 8 days; details: SNU-398, 192 h
# SNU-638 = experiment: Cytotoxicity against human SNU-638 cells measured after 8 days; details: SNU-638, 192 h
# [23] = Cytotoxicity against mouse AB22 cells measured after 8 days; details: AB22, 192 h
# DMS-273 = experiment: Cytotoxicity against human DMS-273 cells measured after 8 days; details: DMS-273, 192 h
# FTC-133 = experiment: Cytotoxicity against human FTC-133 cells measured after 8 days; details: FTC-133, 192 h
# [24] = Cytotoxicity against human BICR 22 cells measured after 8 days; details: BICR 22, 192 h
# [25] = Cytotoxicity against human PE/CA-PJ15 cells measured after 8 days; details: PE/CA-PJ15, 192 h
# RT-112 = experiment: Cytotoxicity against human RT-112 cells measured after 8 days; details: RT-112, 192 h
# [26] = Cytotoxicity against human HCC15 cells measured after 8 days; details: HCC15, 192 h
# [27] = Cytotoxicity against human HCC1534 cells measured after 8 days; details: HCC1534, 192 h
# HT-1080 = experiment: Cytotoxicity against human HT-1080 cells measured after 8 days; details: HT-1080, 192 h
# [28] = Cytotoxicity against human GCH-nu-YS cells measured after 8 days; details: 192 h
# [29] = Cytotoxicity against human HEC-116 cells measured after 8 days; details: HEC-116, 192 h
# MES-SA = experiment: Cytotoxicity against human MES-SA cells measured after 8 days; details: 192 h
compound,measurement,setting,value
C/C=C/Cn1cc(-c2ccc(C(=O)N3CCOCC3)cc2)c2cc[nH]c2c1=O,IC50,EL4,20 µM
same,IC50,MOLM-13,9.33 µM
same,IC50,[1],20 µM
same,IC50,[2],20 µM
same,IC50,SUP-B15,20 µM
same,IC50,[3],20 µM
same,IC50,[4],20 µM
same,IC50,[5],20 µM
same,IC50,[6],20 µM
same,IC50,[7],20 µM
same,IC50,[8],20 µM
same,IC50,[9],20 µM
same,IC50,[10],20 µM
same,IC50,GI-1,20 µM
same,IC50,[11],11.9 µM
same,IC50,[12],20 µM
same,IC50,FaDu,20 µM
same,IC50,[13],20 µM
same,IC50,[14],20 µM
same,IC50,[15],20 µM
same,IC50,[16],20 µM
same,IC50,KURAMOCHI,20 µM
same,IC50,TOV112D,20 µM
same,IC50,Capan-2,20 µM
same,IC50,CFPAC-1,20 µM
same,IC50,HEp-2,20 µM
same,IC50,[17],20 µM
same,IC50,[18],20 µM
same,IC50,CaR-1,20 µM
same,IC50,COLO-320-HSR,20 µM
same,IC50,[19],20 µM
same,IC50,PANC-1,20 µM
same,IC50,NCI-H2052,20 µM
same,IC50,MC-38,16.7 µM
same,IC50,SW1463,20 µM
same,IC50,[20],20 µM
same,IC50,A2058,20 µM
same,IC50,C32,20 µM
same,IC50,KYSE-410,20 µM
same,IC50,KYSE-70 cell line,20 µM
same,IC50,COLO-800,20 µM
same,IC50,COLO-829,20 µM
same,IC50,[21],20 µM
same,IC50,CAKI-2,20 µM
same,IC50,[22],20 µM
same,IC50,Renca,20 µM
same,IC50,HepG2,20 µM
same,IC50,SNU-182,20 µM
same,IC50,SNU-398,20 µM
same,IC50,SNU-638,20 µM
same,IC50,[23],20 µM
same,IC50,DMS-273,20 µM
same,IC50,FTC-133,20 µM
same,IC50,[24],20 µM
same,IC50,[25],20 µM
same,IC50,RT-112,20 µM
same,IC50,[26],20 µM
same,IC50,[27],20 µM
same,IC50,HT-1080,20 µM
same,IC50,[28],20 µM
same,IC50,[29],20 µM
same,IC50,MES-SA,20 µM
